The target of the experiment is T1, Recombinant human liver GK1 (GST-GK) (Homo sapiens, UniProt P35557).
T1 construct: made in house; host or cells: E. coli
T1 sequence (P35557 1-466 isoform P35557-2): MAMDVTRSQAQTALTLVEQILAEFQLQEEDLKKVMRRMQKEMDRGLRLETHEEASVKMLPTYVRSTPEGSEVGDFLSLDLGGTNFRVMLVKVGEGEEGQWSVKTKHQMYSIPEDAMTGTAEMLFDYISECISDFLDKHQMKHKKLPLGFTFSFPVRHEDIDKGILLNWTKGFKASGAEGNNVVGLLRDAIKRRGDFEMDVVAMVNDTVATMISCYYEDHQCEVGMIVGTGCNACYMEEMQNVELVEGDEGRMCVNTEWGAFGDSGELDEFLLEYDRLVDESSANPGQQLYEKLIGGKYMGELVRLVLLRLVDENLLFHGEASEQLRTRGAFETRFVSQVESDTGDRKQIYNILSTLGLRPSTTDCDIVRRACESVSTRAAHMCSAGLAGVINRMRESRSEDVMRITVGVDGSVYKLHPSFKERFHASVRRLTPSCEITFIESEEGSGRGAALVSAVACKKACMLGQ
Description: In vitro glucokinase activity (G6PDH-coupled NADH assay). Format: biochemical. The conditions noted are these: 30° C., 5 mM D-glucose, 10% DMSO. Put shortly:
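Activation measured as the rate of OD340 rise from G6PDH-coupled NADH production, relative to 10% DMSO control, reported as SC1.5 (concentration for 50% activity increase). Conditions: 30° C, pH 7.1 Hepes, 5 mM glucose, 1 mM ATP, purified recombinant GST-human GK1, compound preincubated 10 min before enzyme addition.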

With `CCc1nsc(NC(=O)[C@H](CC(C)C)N2CC(Oc3ccccc3Cl)=CC2=O)n1` [Example 110, (S)-2-[4-(2-Chloro-phenoxy)-2-oxo-2,5-dihydro-pyrrol-1-yl]-4-methyl-pentanoic acid (3-ethyl-[1,2,4]thiadiazol-5-yl)-amide], the “SC1.5 (concentration of activator that produced a 50% increase in the activity of GK)” value came to 3.478 µM.
Consider `C=CCOC(=O)Cc1nsc(NC(=O)[C@H](CC(C)C)N2CC(Oc3ccccc3Cl)=CC2=O)n1` [Example 111, (5-{(S)-2-[4-(2-Chloro-phenoxy)-2-oxo-2,5-dihydro-pyrrol-1-yl]-4-methyl-pentanoylamino}-[1,2,4]thiadiazol-3-yl)-acetic acid allyl ester], for which the “SC1.5 (concentration of activator that produced a 50% increase in the activity of GK)” value worked out at 0.694 µM.
For `COCc1nsc(NC(=O)[C@H](CC(C)C)N2CC(Oc3ccccc3Cl)=CC2=O)n1` [Example 112, (S)-2-[4-(2-Chloro-phenoxy)-2-oxo-2,5-dihydro-pyrrol-1-yl]-4-methyl-pentanoic acid (3-methoxymethyl-[1,2,4]thiadiazol-5-yl)-amide] the value was 2.26 µM.
With `CC(=O)Cc1nsc(NC(=O)[C@H](CC(C)C)N2CC(Oc3ccccc3Cl)=CC2=O)n1` [Example 113, (S)-2-[4-(2-Chloro-phenoxy)-2-oxo-2,5-dihydro-pyrrol-1-yl]-4-methyl-pentanoic acid [3-(2-oxo-propyl)-[1,2,4]thiadiazol-5-yl]-amide] the figure was 1.737 µM; with `CCOc1cccc(OC2=CC(=O)N([C@@H](CC(C)C)C(=O)Nc3ccn(CC(C)(C)O)n3)C2)c1F` [Example 114, (S)-2-[4-(3-Ethoxy-2-fluoro-phenoxy)-2-oxo-2,5-dihydro-pyrrol-1-yl]-4-methyl-pentanoic acid [1-(2-hydroxy-2-methyl-propyl)-1H-pyrazol-3-yl]-amide], 0.02 µM; with `CCOc1cccc(OC2=CC(=O)N([C@@H](CC(C)C)C(=O)Nc3ccn(C[C@@H](O)CO)n3)C2)c1F` [Example 115, (S)-2-[4-(3-Ethoxy-2-fluoro-phenoxy)-2-oxo-2,5-dihydro-pyrrol-1-yl]-4-methyl-pentanoic acid [1-((R)-2,3-dihydroxy-propyl)-1H-pyrazol-3-yl]-amide], 0.027 µM.
For `CCOc1ccc(F)c(OC2=CC(=O)N([C@@H](CC(C)C)C(=O)Nc3ccn(C[C@@H]4COC(C)(C)O4)n3)C2)c1F` [Example 116, (S)-2-[4-(3-Ethoxy-2,6-difluoro-phenoxy)-2-oxo-2,5-dihydro-pyrrol-1-yl]-4-methyl-pentanoic acid [1-((R)-2,2-dimethyl-[1,3]dioxolan-4-yl-methyl)-1H-pyrazol-3-yl]-amide] the value was 0.22 µM; for `CCOc1ccc(F)c(OC2=CC(=O)N([C@@H](CC(C)C)C(=O)Nc3ccn(C[C@@H](O)CO)n3)C2)c1F` [Example 117, (S)-2-[4-(3-Ethoxy-2,6-difluoro-phenoxy)-2-oxo-2,5-dihydro-pyrrol-1-yl]-4-methyl-pentanoic acid [1-((R)-2,3-dihydroxy-propyl)-1H-pyrazol-3-yl]-amide], 0.034 µM.
As for `COc1ccc(F)c(OC2=CC(=O)N([C@@H](CC(C)C)C(=O)Nc3ccn(C[C@@H]4COC(C)(C)O4)n3)C2)c1F` [Example 118, (S)-2-[4-(2,6-Difluoro-3-methoxy-phenoxy)-2-oxo-2,5-dihydro-pyrrol-1-yl]-4-methyl-pentanoic acid [1-((R)-2,2-dimethyl-[1,3]dioxolan-4-yl-methyl)-1H-pyrazol-3-yl]-amide], the “SC1.5 (concentration of activator that produced a 50% increase in the activity of GK)” value was 0.256 µM.
Turning to `COc1ccc(F)c(OC2=CC(=O)N([C@@H](CC(C)C)C(=O)Nc3ccn(C[C@@H](O)CO)n3)C2)c1F` [Example 119, (S)-2-[4-(2,6-Difluoro-3-methoxy-phenoxy)-2-oxo-2,5-dihydro-pyrrol-1-yl]-4-methyl-pentanoic acid [1-((R)-2,3-dihydroxy-propyl)-1H-pyrazol-3-yl]-amide], the “SC1.5 (concentration of activator that produced a 50% increase in the activity of GK)” value is 0.072 µM.
With `Cc1ccccc1OC1=CC(=O)N([C@@H](CC(C)C)C(=O)Nc2ccn(C)n2)C1` [Example 120, (S)-4-Methyl-2-(2-oxo-4-o-tolyloxy-2,5-dihydro-pyrrol-1-yl)-pentanoic acid (1-methyl-1H-pyrazol-3-yl)-amide] the figure was 0.72 µM.
With `Cc1ccccc1OC1=CC(=O)N([C@@H](CC(C)C)C(=O)Nc2ccn(CCO[Si](C)(C)C(C)(C)C)n2)C1` [Example 121, (S)-4-Methyl-2-(2-oxo-4-o-tolyloxy-2,5-dihydro-pyrrol-1-yl)-pentanoic acid {1-[2-(t-butyl-dimethyl-silanyloxy)-ethyl]-1H-pyrazol-3-yl}-amide] the figure was 0.746 µM.
For `Cc1ccccc1OC1=CC(=O)N([C@@H](CC(C)C)C(=O)Nc2ccn(CCO)n2)C1` [Example 122, (S)-4-Methyl-2-(2-oxo-4-o-tolyloxy-2,5-dihydro-pyrrol-1-yl)-pentanoic acid [1-(2-hydroxy-ethyl)-1H-pyrazol-3-yl]-amide], the “SC1.5 (concentration of activator that produced a 50% increase in the activity of GK)” value came to 0.56 µM.
With `Cc1ccccc1OC1=CC(=O)N([C@@H](CC(C)C)C(=O)Nc2ccn(C[C@@H]3COC(C)(C)O3)n2)C1` [Example 123, (S)-4-Methyl-2-(2-oxo-4-o-tolyloxy-2,5-dihydro-pyrrol-1-yl)-pentanoic acid [1-((R)-2,2-dimethyl-[1,3]dioxolan-4-yl-methyl)-1H-pyrazol-3-yl]-amide] the figure was 1.294 µM.
As for `Cc1ccccc1OC1=CC(=O)N([C@@H](CC(C)C)C(=O)Nc2ccn(C[C@@H](O)CO)n2)C1` [Example 124, (S)-4-Methyl-2-(2-oxo-4-o-tolyloxy-2,5-dihydro-pyrrol-1-yl)-pentanoic acid [1-((R)-2,3-dihydroxy-propyl)-1H-pyrazol-3-yl]-amide], the “SC1.5 (concentration of activator that produced a 50% increase in the activity of GK)” value turned out to be 0.336 µM.
With `Cc1ccccc1OC1=CC(=O)N([C@@H](CC(C)C)C(=O)Nc2ccn(CC(C)(C)O)n2)C1` [Example 125, (S)-4-Methyl-2-(2-oxo-4-o-tolyloxy-2,5-dihydro-pyrrol-1-yl)-pentanoic acid [1-(2-hydroxy-2-methyl-propyl)-1H-pyrazol-3-yl]-amide] the figure was 0.252 µM.
Regarding `CC(C)C[C@@H](C(=O)Nc1ccn(CC(C)(C)O)n1)N1CC(Oc2cccc(O)c2F)=CC1=O` [Example 126, (S)-2-[4-(2-Fluoro-3-hydroxy-phenoxy)-2-oxo-2,5-dihydro-pyrrol-1-yl]-4-methyl-pentanoic acid [1-(2-hydroxy-2-methyl-propyl)-1H-pyrazol-3-yl]-amide], the “SC1.5 (concentration of activator that produced a 50% increase in the activity of GK)” value stood at 0.182 µM.
For the compound `CC(C)C[C@@H](C(=O)Nc1ccn(C)n1)N1CC(Oc2cccc(O)c2F)=CC1=O` [Example 127, (S)-2-[4-(2-Fluoro-3-hydroxy-phenoxy)-2-oxo-2,5-dihydro-pyrrol-1-yl]-4-methyl-pentanoic acid (1-methyl-1H-pyrazol-3-yl)-amide], the “SC1.5 (concentration of activator that produced a 50% increase in the activity of GK)” value is 0.414 µM.
For `CC(C)C[C@@H](C(=O)Nc1ccn(C[C@@H]2COC(C)(C)O2)n1)N1CC(Oc2cccc(Br)c2F)=CC1=O` [Example 128, (S)-2-[4-(3-Bromo-2-fluoro-phenoxy)-2-oxo-2,5-dihydro-pyrrol-1-yl]-4-methyl-pentanoic acid [1-((R)-2,2-dimethyl-[1,3]dioxolan-4-yl-methyl)-1H-pyrazol-3-yl]-amide] the value was 0.351 µM; for `CC(C)C[C@@H](C(=O)Nc1ccn(C[C@@H](O)CO)n1)N1CC(Oc2cccc(Br)c2F)=CC1=O` [Example 129, (S)-2-[4-(3-Bromo-2-fluoro-phenoxy)-2-oxo-2,5-dihydro-pyrrol-1-yl]-4-methyl-pentanoic acid [1-((R)-2,3-dihydroxy-propyl)-1H-pyrazol-3-yl]-amide], 0.163 µM; for `Cc1cccc(OC2=CC(=O)N([C@@H](CC(C)C)C(=O)Nc3ccn(C[C@@H]4COC(C)(C)O4)n3)C2)c1F` [Example 130, (S)-2-[4-(2-Fluoro-3-methyl-phenoxy)-2-oxo-2,5-dihydro-pyrrol-1-yl]-4-methyl-pentanoic acid [1-((R)-2,2-dimethyl-[1,3]dioxolan-4-yl-methyl)-1H-pyrazol-3-yl]-amide], 0.26 µM.
As to `Cc1cccc(OC2=CC(=O)N([C@@H](CC(C)C)C(=O)Nc3ccn(C[C@@H](O)CO)n3)C2)c1F` [Example 131, (S)-2-[4-(2-Fluoro-3-methyl-phenoxy)-2-oxo-2,5-dihydro-pyrrol-1-yl]-4-methyl-pentanoic acid [1-((R)-2,3-dihydroxy-propyl)-1H-pyrazol-3-yl]-amide], the “SC1.5 (concentration of activator that produced a 50% increase in the activity of GK)” value turned out to be 0.117 µM.

(Values after patent publication US7741327B2 (Hoffmann-La Roche Inc., priority 2008, dated 2010).)
